Measurements reported in article PMC4114559, “Pigment Dispersing Factor Regulates Ecdysone Biosynthesis via Bombyx Neuropeptide G Protein Coupled Receptor-B2 in the Prothoracic Glands of Bombyx mori” (PLoS ONE, 2014).
Entries after “also recorded” stand apart in the source; their conditions may differ. Numbered stars: 1 amine (or outer) side, 2 acyl side, 3 side chain; on linkers, the order of the positions; unused ones are H or OH. Bridge positions count the residues as written; N and C are the ends. Square brackets hold non-standard residues; d marks the D form. Ends that are not written are not given here. Peptide text beside a SMILES is read from it. I, II: the chains in the order shown. Actinocin(9to1) = Cc1c2oc3c(C)ccc(C(=O)[*:1])c3nc-2c(C(=O)[*:2])c(N)c1=O; NMeV = CN[C@H](C(=O)O)C(C)C; Sar = CNCC(=O)O

Columns and labels:
PGs of B. mori = experiment: Effect of inhibitors on induced ecdysone biosynthesis in cultured PGs; type: cell-based, Bombyx mori; details: 15 min pre-treatment, 3 hours; for effect of inhibitor on PDF-induced ecdysone biosynthesis: n = 10
Experimental: (§1) Dissected PGs were rinsed with Grace's insect culture medium (Gibco) and pre-cultured individually in 100 µl medium in 96-well plates (BD Falcon) at 25°C for 30 min. To evaluate the effect of extracellular Ca^2+ on ecdysone biosynthesis, lepidopteran saline and lepidopteran saline using NaCl as a replacement for CaCl2 were used. For the pharmacological analysis, the PG was pre-treated with the inhibitor for 15 min during the pre-culture period. Following this treatment, the PG was cultured in the desired conditions for the desired period (Ecdysone assay: 3 hours; cAMP assay: 30 min; and Protein phosphorylation assay: 15 min). Actinomycin D, H-89 and cycloheximide (CHX) were purchased from Sigma; Rapamycin was purchased from Santa Cruz Biotechnology; and LY294002 was purchased from Merck. H-89 was dissolved in water. The other inhibitors were dissolved in DMSO. A 1% volume of the appropriate inhibitor was added to the culture medium.
Prior to ecdysteroids extraction, the 100 µl of cultured medium was diluted with equal volume of MilliQ water. After that, 400 µl of 1-butanol was added to the sample, vortexed for 3 min and centrifuged at 1,000×g for 10 min at 4°C. The 1-butanol phase was transferred to a new tube, and the solvent was evaporated using a centrifugal concentrator. The dried samples were re-dissolved in 50 µl of pure methanol for the following analysis. Quantification of ecdysteroids using LC-MS/MS was performed as previously described with some modifications. Ecdysteroids were separated by reverse-phase HPLC using a PEGASIL C8 column (3 µm, 2×100 mm, Senshu-pak, Senshu-kagaku) with gradient elution of acetonitrile (ACN)/water at a flow rate of 0.2 mL min^−1 (0–3 min (ACN = 10–75%), 3–20 min (75–85%), 20–25 min (100%)), on a Prominence UFLC system (Shimadzu). The separated ecdysteroids were quantified with the QTRAP5500 MS/MS system (AB SCIEX) using MRM mode. For the quantitative analysis, standard curves were generated with concentrations of 0.98–1000 ng/ml.
Because PDF stimulated the increase in intracellular cAMP levels in the PGs, the activation of PKA is likely involved in the PDF signaling pathway. One of the pathways downstream of active PKA is cAMP response element-binding protein (CREB)-mediated transcriptional regulation. First, we evaluated the effect of PDF on the transcript level of known ecdysone biosynthetic enzymes (Nvd, Nm-g, Spo, Phm, Dib and Sad) using Q-PCR. […] Therefore, de novo transcription was not required for PDF-mediated ecdysone biosynthesis for at least 3 hours. […]
(§2) Figure 4 Signaling pathways involved in PDF-induced ecdysone biosynthesis. […] The transcript levels of nvd, nm-g, spo, phm, dib and sad were quantified with Q-PCR. […] Statistically significant differences were evaluated by Student's t-test (***P<0.001, **P<0.01). […]

4E-BP = experiment: p-4E-BP level in cultured PGs (Western blot); type: cell-based, Bombyx mori; details: PI3K inhibitor LY294002 50 µM; immunoblotting
Experimental: as §1, with “Actinomycin D, H-89 and cycloheximide (CHX) were purchased from Sigma; Rapamycin was purchased from Santa Cruz Biotechnology; and LY294002 was purchased from Merck. H-89 was dissolved in water. The other inhibitors were dissolved in DMSO. A 1% volume of the appropriate inhibitor was added to the culture medium.” left out
Dissected PGs were pre-cultured in Grace's culture medium for 30 min, then cultured with or without PDF or PTTH for 15 min. The cultured PGs were sonicated in 50 mM Tris-HCl (pH 6.8) with protease inhibitor cocktail (Complete, Roche) and phosphatase inhibitor cocktail (Wako), lysed in 1x SDS sample buffer excluding 2-mercaptoethanol (2ME) and bromophenol blue (BPB), and the protein concentration was measured using the BCA protein assay kit (Pierce). […]
as §2

PGs = details: cited from earlier work
Source text: In many cases, a single hormone has multiple functions regulating many physiological phenomena. Thus, both the regulation of receptor expression in the target tissue and the regulation of hormone release are important for the hormone to only affect the target tissue at the appropriate time. In the case of PTTH, the titer of the hormone in the hemolymph is clearly correlated with the ecdysteroid titer ... || In insects, neuropeptide hormones affect the target tissue via humoral and neuronal pathways. […] The increase in intracellular cAMP is thought to be regulated by Ca^2+ signaling in the PTTH signaling pathway, [37]. […] PDF sig ... || (+ 1 further places)

## O=c1cc(N2CCOCC2)oc2c(-c3ccccc3)cccc12 [LY294002, reference compound]
PGs of B. mori; PI3K inhibitor LY294002 50 µM, n = 3 and 4
  effect of inhibitor on ecdysone biosynthesis induced by PDF and PTTH: clearly suppressed the ecdysone biosynthesis
4E-BP
  effect of inhibitor on phosphorylation of 4E-BP induced by PDF and PTTH: clearly suppressed the ecdysone biosynthesis and phosphorylation of 4E-BP induced by PDF and PTTH

## diapause hormone: neuronal pathway-mediated tropic hormone (TDMKDESDRGAHSERGALWFGPRL; ends and bridges not checked; UniProt P09971 24-47, looked up) [reference compound]
PGs; neuronal pathway-mediated tropic hormone, ref [32], read-out: EC50 of tropic hormone (literature)
  EC50: 270 nM

## Cc1c2oc3c(C)ccc(C(=O)N[C@@H]4C(=O)N[C@H](C(C)C)C(=O)N5CCC[C@H]5C(=O)N(C)CC(=O)N(C)[C@@H](C(C)C)C(=O)O[C@@H]4C)c3nc-2c(C(=O)N[C@@H]2C(=O)N[C@H](C(C)C)C(=O)N3CCC[C@H]3C(=O)N(C)CC(=O)N(C)[C@@H](C(C)C)C(=O)O[C@@H]2C)c(N)c1=O [actinomycin D] (I: T[dV]P[Sar][NMeV] / II: T[dV]P[Sar][NMeV]; ester I:1-I:C, II:1-II:C; linker I:N-II:N via Actinocin(9to1))
PGs of B. mori; transcription inhibitor ActD 10 µM
  effect of inhibitor on PDF-induced ecdysone biosynthesis: did not suppress PDF-induced ecdysone biosynthesis

## O=S(=O)(NCCNC/C=C/c1ccc(Br)cc1)c1cccc2cnccc12 [H-89]
PGs of B. mori; PKA inhibitor H-89 0.1 mM
  effect of inhibitor on PDF-induced ecdysone biosynthesis: clearly inhibited ecdysone biosynthesis; also recorded: inhibited PDF-induced ecdysone biosynthesis

## C[C@@H]1C[C@@H]([C@H](O)CC2CC(=O)NC(=O)C2)C(=O)[C@@H](C)C1 [CHX, cycloheximide]
PGs of B. mori; translation inhibitor CHX 0.2 mM
  effect of inhibitor on PDF-induced ecdysone biosynthesis: clearly inhibited ecdysone biosynthesis

## CCCC(=O)Nc1ncnc2c1ncn2[C@@H]1O[C@@H]2COP(=O)(O)O[C@H]2[C@H]1OC(=O)CCC [dbcAMP, dibutyryl cyclic AMP, reference compound]
PGs; cell-permeable cAMP analog, in vitro, ref [27], [37]
  ecdysone biosynthesis in vitro (literature): can induce ecdysone biosynthesis in vitro
PGs; ref [39]
  effect of a transcription inhibitor on PTTH- and dbcAMP-induced ecdysone biosynthesis (literature): ecdysone biosynthesis was suppressed by a transcription inhibitor
